Reference: paper PMC6940745 (International Journal of Molecular Sciences, 2019)
Where a SMILES comes first, the peptide text is derived from it. [ ]: non-standard residue; d: D form. The star is where a group is joined. Bz = O=C(c1ccccc1)*; NPr2 = CCCN(CCC)*

Tested on: TYR
Test: TYR protein expression in human skin ex vivo (immunohistochemistry)
Assay type: cell-based
Settings: topical 30, 100 and 200 µM, six days; p = 0.06
Method: Following declaration of Helsinki principles (DoH-Oct2013, World Medical Association, Ferney-Voltaire, France), human skin samples were obtained from elective plastic surgery after informed consent was obtained. For the two experiments shown in Figure 2, Figure 3 and Figure 4, we had one person with an individual topology angle (ITA°) of 18, and one person with an ITA° of 39 [69]. The skin samples were cut in pieces of 8 × 3 mm and cultured up to day 6. Skin samples were cultured in an air–liquid interface in a perforated ring of stainless steel in contact with culture medium (modified Williams’ E medium). The culture medium was renewed every three days (i.e., day 0–3). Compounds were added daily in DMSO at 4 µL volume. At day 6, the skin samples were fixed in formalin, embedded in paraplast, and cut at the microtome for histochemical staining and consequent image analysis. Six skin biopsies were used for each single treatment.
Twelve skin sections from the ex vivo melanogenesis experiment above were immunoassayed with the selected antibodies (TYR, Thermo Scientific #MS-800-P0 (Thermo Scientific, Waltham, MA, USA); TYRP-1, Covance #SIG-38150 (Covance Inc., Princeton, NJ, USA), MITF, Abcam #ab80651 (Abcam plc, Cambridge, UK). The number of positive cells within the epidermis was counted and the value was normalized upon the length of the basal lamina, thus obtaining a score. […]

With `CCCN(CCC)C(=O)[C@@H](Cc1c[nH]c2ccccc12)NC(=O)[C@H](CCCNC(=N)N)NC(=O)[C@@H](Cc1ccccc1)NC(=O)[C@H](Cc1c[nH]cn1)NC(=O)CNC(=O)c1ccccc1` [Peptide 4] (Bz-GH[dF]R[dW]-NPr2) the “Maximal induction of TYR protein expression vs vehicle” value was 44%.
